Measured values as given in US20260022142A1, “MACROCYCLIC IMMUNOMODULATORS” (Bristol-Myers Squibb Company, priority 2022, published 2026).
Numbered stars: 1 amine (or outer) side, 2 acyl side, 3 side chain; on linkers, the order of the positions; unused ones are H or OH. Bridge positions count the residues as written; N and C are the ends. Square brackets hold non-standard residues; d marks the D form. Peptide text beside a SMILES is read from it. * marks the point of attachment. ξ: configuration not given here. Phe(4-COOH) = N[C@@H](Cc1ccc(C(=O)O)cc1)C(=O)O; Bip = N[C@@H](Cc1ccc(-c2ccccc2)cc1)C(=O)O; Phe(3-Me) = Cc1cccc(C[C@H](N)C(=O)O)c1; βAsp = O=C(O)[C@H](CC(=O)[*:2])N[*:1]; NH(CH2)12COOH = O=C(O)CCCCCCCCCCCCN*; PEG6 = NCCOCCOCCOCCOCCOCCOCCC(=O)O; X12 = CC(N)[C@H](N[*:1])C(=O)[*:2]; hArg = N=C(N)NCCCC[C@H](N)C(=O)O; 4Pal = N[C@@H](Cc1ccncc1)C(=O)O; Cha = N[C@@H](CC1CCCCC1)C(=O)O; Cit = NC(=O)NCCC[C@H](N)C(=O)O; Ile(3ξ) = CCC(C)[C@H](N)C(=O)O; Thr(3ξ) = CC(O)[C@H](N)C(=O)O; 12Ado = NCCCCCCCCCCCC(=O)O; Carboxymethyl = O=C(O)C*; Orn = NCCC[C@H](N)C(=O)O; Aun = NCCCCCCCCCCC(=O)O; Dab = NCC[C@H](N)C(=O)O; AEEA = NCCOCCOCC(=O)O

Biological target: T1, PD-1/PD-L1 interaction (PE-labeled human PD-L1-Ig binding to Jurkat cell line over-expressing human PD-1) (Homo sapiens, UniProt Q15116)
T1 construct: expressed in transfected cells; host or cells: Jurkat
T1 sequence (Q15116 25-288): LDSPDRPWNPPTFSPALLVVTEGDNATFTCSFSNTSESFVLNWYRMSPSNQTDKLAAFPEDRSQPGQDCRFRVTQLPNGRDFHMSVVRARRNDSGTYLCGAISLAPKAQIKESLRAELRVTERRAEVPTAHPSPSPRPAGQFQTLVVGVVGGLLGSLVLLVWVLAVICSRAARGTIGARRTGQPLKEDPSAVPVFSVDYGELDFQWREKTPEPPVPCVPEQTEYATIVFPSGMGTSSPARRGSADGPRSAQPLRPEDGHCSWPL
Assay: Jurkat-PD-1 Cell Binding High-Content Screening Assay (CBA)
Assay type: cell-based
Conditions: Jurkat cell line over-expressing human PD-1; PE-labeled PD-L1-Ig 20 nM final; read-out: Jurkat hPD1-PDL1 IC50
Procedure, shortened: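 Read-out is high-content imaging of cell-bound phycoerythrin-tagged PD-L1-Ig on fixed, Hoechst-counterstained Jurkat cells that over-express human PD-1. Compound exposure lasts 2 h at 37° C before the labeled ligand (20 nM final) is added for a further hour.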

IC50 [nM]	SMILES
10.7	CC(C)C[C@H]1NC(=O)[C@H](CCCN)NC(=O)[C@H](C(C)C)NC(=O)[C@H](Cc2ccc(-c3ccccc3)cc2)NC(=O)[C@H](C(C)C)NC(=O)[C@H](Cc2c[nH]c3ccccc23)NC(=O)[C@H](CC(=O)O)NC(=O)[C@H](Cc2ccc(OCC(=O)O)cc2)NC(=O)[C@H](CCCCNC(=N)N)NC(=O)CSC[C@@H](C(=O)NCC(=O)NCCOCCOCC(=O)N[C@@H](CCCN)C(=O)NCCCCCCCCCCC(=O)O)NC(=O)[C@H](CO)NC(=O)[C@H](C(C)C)NC(=O)[C@H](CC2CCCCC2)NC(=O)[C@H](CCN)NC1=O [Compound 3035] ({CH2CO}-[hArg]Y(Carboxymethyl)DWV[Bip]V[Orn][dL][Dab][Cha]VSCG[AEEA][Orn][Aun]-OH; thioether N-14)
4.9	CC(C)C[C@H]1NC(=O)[C@H](CCCN)NC(=O)[C@H](C(C)C)NC(=O)[C@H](Cc2ccc(-c3ccccc3)cc2)NC(=O)[C@H](C(C)C)NC(=O)[C@H](Cc2c[nH]c3ccccc23)NC(=O)[C@H](CC(=O)O)NC(=O)[C@H](Cc2ccc(OCC(=O)O)cc2)NC(=O)[C@H](CCCCNC(=N)N)NC(=O)CSC[C@@H](C(=O)NCC(=O)NCCOCCOCC(=O)N[C@@H](CCCN)C(=O)NCCCCCCCCCCCC(=O)O)NC(=O)[C@H](CO)NC(=O)[C@H](C(C)C)NC(=O)[C@H](CC2CCCCC2)NC(=O)[C@H](CCN)NC1=O [Compound 3036] ({CH2CO}-[hArg]Y(Carboxymethyl)DWV[Bip]V[Orn][dL][Dab][Cha]VSCG[AEEA][Orn][12Ado]-OH; thioether N-14)
16.5	CC(C)C[C@H]1NC(=O)[C@H](CCCN)NC(=O)[C@H](C(C)C)NC(=O)[C@H](Cc2ccc(-c3ccccc3)cc2)NC(=O)[C@H](C(C)C)NC(=O)[C@H](Cc2c[nH]c3ccccc23)NC(=O)[C@H](CC(=O)O)NC(=O)[C@H](Cc2ccc(OCC(=O)O)cc2)NC(=O)[C@H](CCCCNC(=N)N)NC(=O)CSC[C@@H](C(=O)NCC(=O)NCCOCCOCC(=O)N[C@@H](CCCN)C(=O)NCCCCCCCCCCCCC(=O)O)NC(=O)[C@H](CO)NC(=O)[C@H](C(C)C)NC(=O)[C@H](CC2CCCCC2)NC(=O)[C@H](CCN)NC1=O [Compound 3037] ({CH2CO}-[hArg]Y(Carboxymethyl)DWV[Bip]V[Orn][dL][Dab][Cha]VSCG[AEEA][Orn]-{NH(CH2)12COOH}; thioether N-14)
11.3	CC(C)C[C@H]1NC(=O)[C@H](CCCN)NC(=O)[C@H](C(C)C)NC(=O)[C@H](Cc2ccc(-c3ccccc3)cc2)NC(=O)[C@H](C(C)C)NC(=O)[C@H](Cc2c[nH]c3ccccc23)NC(=O)[C@H](CC(=O)O)NC(=O)[C@H](Cc2ccc(C(=O)O)cc2)NC(=O)[C@H](C(C)O)NC(=O)CSC[C@@H](C(=O)N[C@@H](CC(N)=O)C(=O)NCCOCCOCC(=O)N[C@@H](CCCN)C(=O)NCCCCCCCCCCCC(=O)O)NC(=O)[C@H](CO)NC(=O)[C@H](C(C)C)NC(=O)[C@H](CC2CCCCC2)NC(=O)[C@H](CCN)NC1=O (stereo partly drawn) [Compound 3038] ({CH2CO}-[Thr(3ξ)][Phe(4-COOH)]DWV[Bip]V[Orn][dL][Dab][Cha]VSCN[AEEA][Orn][12Ado]-OH; thioether N-14)
10.5	CCC(C)[C@@H]1NC(=O)[C@H](Cc2ccc(-c3ccccc3)cc2)NC(=O)[C@H](C(C)C)NC(=O)[C@H](Cc2c[nH]c3ccccc23)NC(=O)[C@H](CC(=O)O)NC(=O)[C@H](Cc2ccc(C(=O)O)cc2)NC(=O)[C@H](Cc2ccncc2)NC(=O)CSC[C@@H](C(=O)N[C@@H](CC(N)=O)C(=O)NCCOCCOCC(=O)N[C@@H](CCCN)C(=O)NCCCCCCCCCCC(=O)O)NC(=O)[C@H](CO)NC(=O)[C@H](C(C)C)NC(=O)[C@H](CC2CCCCC2)NC(=O)[C@H](CCN)NC(=O)[C@@H](CC(C)C)NC(=O)[C@H](CCCN)NC1=O (stereo partly drawn) [Compound 3039] ({CH2CO}-[4Pal][Phe(4-COOH)]DWV[Bip][Ile(3ξ)][Orn][dL][Dab][Cha]VSCN[AEEA][Orn][Aun]-OH; thioether N-14)
15	CCC(C)[C@@H]1NC(=O)[C@H](Cc2ccc(-c3ccccc3)cc2)NC(=O)[C@H](C(C)C)NC(=O)[C@H](Cc2c[nH]c3ccccc23)NC(=O)[C@H](CC(=O)O)NC(=O)[C@H](Cc2ccncc2)NC(=O)[C@H](C(C)O)NC(=O)CSC[C@@H](C(=O)N[C@@H](CC(N)=O)C(=O)NCCOCCOCC(=O)N[C@@H](CCCN)C(=O)NCCCCCCCCCCCCC(=O)O)NC(=O)[C@H](CO)NC(=O)[C@H](C(C)C)NC(=O)[C@H](CC2CCCCC2)NC(=O)[C@H](CCN)NC(=O)[C@@H](CC(C)C)NC(=O)[C@H](CCCN)NC1=O (stereo partly drawn) [Compound 3040] ({CH2CO}-[Thr(3ξ)][4Pal]DWV[Bip][Ile(3ξ)][Orn][dL][Dab][Cha]VSCN[AEEA][Orn]-{NH(CH2)12COOH}; thioether N-14)
12.7	CC(C)C[C@H]1NC(=O)[C@H](CCCN)NC(=O)[C@H](C(C)C)NC(=O)[C@H](Cc2ccc(-c3ccccc3)cc2)NC(=O)[C@H](C(C)C)NC(=O)[C@H](Cc2c[nH]c3ccccc23)NC(=O)[C@H](CC(=O)O)NC(=O)[C@H](Cc2ccc(OCC(=O)O)cc2)NC(=O)[C@H](C(C)O)NC(=O)CSC[C@@H](C(=O)NCCOCCOCC(=O)N[C@@H](CC(=O)NCCCCCCCCCCCC(=O)O)C(=O)O)NC(=O)[C@H](CO)NC(=O)[C@H](C(C)C)NC(=O)[C@H](CC2CCCCC2)NC(=O)[C@H](CCN)NC1=O (stereo partly drawn) [Compound 3041] ({CH2CO}-[Thr(3ξ)]Y(Carboxymethyl)DWV[Bip]V[Orn][dL][Dab][Cha]VSC[AEEA][βAsp][12Ado]-OH; thioether N-14)
11.5	CC(C)C[C@H]1NC(=O)[C@H](CCCN)NC(=O)[C@H](C(C)C)NC(=O)[C@H](Cc2ccc(-c3ccccc3)cc2)NC(=O)[C@H](C(C)C)NC(=O)[C@H](Cc2c[nH]c3ccccc23)NC(=O)[C@H](CC(=O)O)NC(=O)[C@H](Cc2ccc(C(=O)O)cc2)NC(=O)[C@H](Cc2ccc(OCC(=O)O)cc2)NC(=O)CSC[C@@H](C(=O)NCCOCCOCC(=O)N[C@@H](CC(=O)NCCCCCCCCCCCC(=O)O)C(=O)O)NC(=O)[C@H](C(C)O)NC(=O)[C@H](C(C)C)NC(=O)[C@H](CC2CCCCC2)NC(=O)[C@H](CCN)NC1=O (stereo partly drawn) [Compound 3042] ({CH2CO}-Y(Carboxymethyl)[Phe(4-COOH)]DWV[Bip]V[Orn][dL][Dab][Cha]V[Thr(3ξ)]C[AEEA][βAsp][12Ado]-OH; thioether N-14)
15.4	CC(C)C[C@H]1NC(=O)[C@H](CCCN)NC(=O)[C@H](C(C)C)NC(=O)[C@H](Cc2ccc(-c3ccccc3)cc2)NC(=O)[C@H](C(C)C)NC(=O)[C@H](Cc2c[nH]c3ccccc23)NC(=O)[C@H](CC(=O)O)NC(=O)[C@H](Cc2ccc(OCC(=O)O)cc2)NC(=O)[C@H](CCCCNC(=N)N)NC(=O)CSC[C@@H](C(=O)NCC(=O)NCCOCCOCC(=O)NCCCCCCCCCCCCC(=O)O)NC(=O)[C@H](CO)NC(=O)[C@H](C(C)C)NC(=O)[C@H](CC2CCCCC2)NC(=O)[C@H](CCN)NC1=O [Compound 3043] ({CH2CO}-[hArg]Y(Carboxymethyl)DWV[Bip]V[Orn][dL][Dab][Cha]VSCG[AEEA]-{NH(CH2)12COOH}; thioether N-14)
6.4	CC(C)C[C@H]1NC(=O)[C@H](CCCN)NC(=O)[C@H](CCC(=O)O)NC(=O)[C@H](Cc2ccc(-c3ccccc3)cc2)NC(=O)[C@H](C(C)C)NC(=O)[C@H](Cc2c[nH]c3ccccc23)NC(=O)[C@H](CC(=O)O)NC(=O)[C@H](Cc2ccc(C(=O)O)cc2)NC(=O)[C@H](Cc2ccc(OCC(=O)O)cc2)NC(=O)CSC[C@@H](C(=O)N[C@@H](CC(N)=O)C(=O)NCCOCCOCCOCCOCCOCCOCCC(=O)N[C@@H](CCCN)C(=O)NCCCCCCCCCCCC(=O)O)NC(=O)[C@H](CO)NC(=O)[C@H](C(C)C)NC(=O)[C@H](CC2CCCCC2)NC(=O)[C@H](CCN)NC1=O [Compound 3045] ({CH2CO}-Y(Carboxymethyl)[Phe(4-COOH)]DWV[Bip]E[Orn][dL][Dab][Cha]VSCN[PEG6][Orn][12Ado]-OH; thioether N-14)
13.1	CC(C)C[C@H]1NC(=O)[C@H](CCCN)NC(=O)[C@H](CCC(=O)O)NC(=O)[C@H](Cc2ccc(-c3ccccc3)cc2)NC(=O)[C@H](C(C)C)NC(=O)[C@H](Cc2c[nH]c3ccccc23)NC(=O)[C@H](CC(=O)O)NC(=O)[C@H](Cc2ccc(C(=O)O)cc2)NC(=O)[C@H](C(C)N)NC(=O)CSC[C@@H](C(=O)N[C@@H](CC(N)=O)C(=O)NCCOCCOCCOCCOCCOCCOCCC(=O)N[C@@H](CCCN)C(=O)NCCCCCCCCCCCC(=O)O)NC(=O)[C@H](CO)NC(=O)[C@H](C(C)C)NC(=O)[C@H](CC2CCCCC2)NC(=O)[C@H](CCN)NC1=O (stereo partly drawn) [Compound 3046] ({CH2CO}-[X12][Phe(4-COOH)]DWV[Bip]E[Orn][dL][Dab][Cha]VSCN[PEG6][Orn][12Ado]-OH; thioether N-14)
13.3	Cc1cccc(C[C@@H]2NC(=O)[C@H](CC(=O)O)NC(=O)[C@H](Cc3ccc(OCC(=O)O)cc3)NC(=O)[C@H](CCN)NC(=O)CSC[C@@H](C(=O)NCCOCCOCC(=O)NCCCCCCCCCCC(=O)O)NC(=O)[C@H](C(C)O)NC(=O)[C@H](C(C)C)NC(=O)[C@H](CC3CCCCC3)NC(=O)[C@H](CCN)NC(=O)[C@@H](CC(C)C)NC(=O)[C@H](CCCN)NC(=O)[C@H](CCCNC(N)=O)NC(=O)[C@H](Cc3ccc(-c4ccccc4)cc3)NC(=O)[C@H](C(C)C)NC2=O)c1 (stereo partly drawn) [Compound 3047] ({CH2CO}-[Dab]Y(Carboxymethyl)D[Phe(3-Me)]V[Bip][Cit][Orn][dL][Dab][Cha]V[Thr(3ξ)]C[AEEA][Aun]-OH; thioether N-14)
23.2	CC(C)C[C@H]1NC(=O)[C@H](CCCN)NC(=O)[C@H](C(C)C)NC(=O)[C@H](Cc2ccc(-c3ccccc3)cc2)NC(=O)[C@H](C(C)C)NC(=O)[C@H](Cc2c[nH]c3ccccc23)NC(=O)[C@H](CC(=O)O)NC(=O)[C@H](Cc2ccc(OCC(=O)O)cc2)NC(=O)[C@H](Cc2ccncc2)NC(=O)CSC[C@@H](C(=O)NCCOCCOCC(=O)NCCCCCCCCCCC(=O)O)NC(=O)[C@H](C(C)O)NC(=O)[C@H](C(C)C)NC(=O)[C@H](CC2CCCCC2)NC(=O)[C@H](CCN)NC1=O (stereo partly drawn) [Compound 3048] ({CH2CO}-[4Pal]Y(Carboxymethyl)DWV[Bip]V[Orn][dL][Dab][Cha]V[Thr(3ξ)]C[AEEA][Aun]-OH; thioether N-14)
